In US12383607B2, “Topical composition for improved healing of open wounds” (Eleos Pharmaceuticals, Inc., priority 2017, dated 2025):

Tested on: wound
Test: Patient wound healing study
Type: in vivo, human
Conditions: topical application directly in the wound
From the text: Thus, for example, a skin ailment could be treated using a disclosed composition as follows: • 1. Clean the skin ailment with soap and warm water, with either a wash cloth or gauze sponge. Cleaning may be lightly abrasive as the subject tolerates. Alternatively, the skin ailment can be cleaned with gauze, moistened with saline and hibiclens. Again, the cleaning may be lightly abrasive as the subject tolerates. • 2. Rinse the ailment thoroughly with warm water or saline so no soap residue remains. • 3. Apply the topical composition to a Q-Tip applicator and lightly cover the surface of the ailment with the composition. […] If eschar is present, apply the composition to the edge of the eschar and beneath the edge of the eschar. The composition need not be applied to the top of the eschar. • 4. Cover the ailment with dry gauze. Wrap and secure the gauze with Kling, Kerlex roll, or Ace wrap. The wrap should be loosely applied so as to secure the dressing but to not apply pressure to the ailment site. • 5. If there is surrounding dermatitis (redness), allow the area to dry (no wrap need be applied).
3. Summary of Patient Wound Healing Study
A summary of the results of a patient wound healing study are illustrated in Table 2 below. The average blood sugar (BS) change by age and class are shown in FIG. 2A and FIG. 2B, respectively. […]

insulin
healing: significantly enhances healing | wound glucose level: decreases the wound glucose level
